Data as given in US12139617B2, “Polymeric fluorophores, compositions comprising the same, and methods of preparing and using the same” (North Carolina State University, priority 2017, dated 2024).

Experiments:
[1] = Absorption and emission spectra of copolymers F1-F3 and fluorophores D1-D3; type: physicochemical
Description: The target dye-loaded copolymers F1-F3 were then subject to investigations of their spectroscopic properties in both organic solvents and aqueous solution. […] Attaching to the 120-kDa amphiphilic copolymer drastically enhances the water solubility of BODIPY D1 and chlorin D2 without strong perturbation on the spectroscopic properties. Emission band for F1 and F2 in water remains the same as the ones measured in organic solutions, showing minimal dye-dye interaction is involved in aqueous solution of F1 and F2 at μM concentration. […] This negative result may be because of the inappropriate size of the copolymer backbone. Polymer larger in size may be required to encapsulate large hydrophobic fluorophores like the phthalocyanine D3.
All chemicals obtained commercially were used as received unless otherwise noted. Reagent-grade solvents (CH2Cl2, THF, methanol) and HPLC-grade water were used as received. NMR data was measured in a solution of CDCl3 unless otherwise noted. Noncommercial compounds 1, 2, and 4 were prepared following literature procedures. […] Samples were detected with Agilent 1260 infinity refractive index detector. Absorption spectra were measured on Agilent 8453 and Shimadzu UV1800 instruments using dilute (μmolar) solutions of the compound in UV transparent (e.g., quartz) cuvettes versus a solvent blank at room temperature.

[2] = Fluorescence quantum yield of F1-F3 and D1-D3; type: physicochemical
Description: […] […] These comparisons indicate the absence of dye-dye quenching resulting from the aggregation for F1 and F2 in μM aqueous solutions. […] Also, a smaller phthalocyanine skeleton (e.g. with methyl instead of heptyl as peripheral groups) may be encapsulated with the current length of copolymer successfully.

Row | absorption wavelength [1] [nm] | Φf (fluorescence quantum yield) ([2]; CH2Cl2) | Φf (fluorescence quantum yield) ([2]; Toluene) | Structure (SMILES)
1 | 640 | 0.19 | – | Cc1cc(C)c(-c2c3nc(c(-c4ccc(C(=O)NN)cc4)c4ccc(cc5nc(cc6ccc2[nH]6)CC5(C)C)[nH]4)C=C3)c(C)c1 [Compound D2, 5-[4-(N-Aminocarbamoyl)phenyl]-10-Mesityl-18,18-dimethylchlorin]
2 | 700 | – | 0.68 | CCCCCCCc1cc2c(cc1CCCCCCC)-c1nc-2nc2[nH]c(nc3nc(nc4[nH]c(n1)c1cc(CCCCCCC)c(CCCCCCC)cc41)-c1cc(C#Cc4ccc(CC(=O)NN)cc4)ccc1-3)c1cc(CCCCCCC)c(CCCCCCC)cc21 [Compound D3, 2-[4-(N-Aminocarbamoyl)methylphenylethynyl]-9,10,16,17,23,24-hexaheptylphthalocyanine]
